This is an account of results in paper PMC3954831, “Protection of Cardiomyocytes from the Hypoxia-Mediated Injury by a Peptide Targeting the Activator of G-Protein Signaling 8” (PLoS ONE, 2014).

The test system of one series is cardiomyocytes. The series is described as follows: MTT assay, viability of cardiomyocytes. In kind it is cell-based, Wistar rat. Here is the method: Cardiomyocytes in 24-well culture plates were incubated in PBS (pH 7.4) containing 0.5 mg/ml MTT at 37°C. After for 2 h incubation, the PBS was removed and 100 µl of dimethyl sulfoxide (DMSO) was added to each well to solubilize dark blue formazan products. Absorbance of the colored solution was determined at 595 nm.
Here, we first examined the influence of the AGS8-peptide and gallein on the viability of cells. Cardiomyocytes were incubated with gallein for 24 h, and their viability was determined by MTT assay.
Figure 7 Effect of AGS8-peptide or Gallein on the viability of cardiomyocytes determined by MTT assay. Neonatal cardiomyocytes were cultured for 24-peptide or Gallein. […] N = 5 from 5 independent experiments.

The test system of series [1] is connexin 43 (CX43) of cultured cardiomyocytes. The conditions noted are these: gallein 100 µM; ref [13]; cited from earlier work. From the text: Gallein is an inhibitor of Gβγ-mediated signaling that occupies a “common” interaction surface of Gβγ and inhibits the interaction of Gβγ-regulated proteins with Gβγ [25]. Thus, gallein is expected to block a wide range of Gβγ signals in cells, including CX43 regulation mediated by AGS-Gβγ. We previously demonst ...

Turning to `O=C1OC2(c3ccccc31)c1ccc(O)c(O)c1Oc1c2ccc(O)c1O` [gallein], the “cytotoxicity / viability of cardiomyocytes” value with cardiomyocytes (MTT assay, 1 µM, 24 h, N = 5 independent experiments) is “caused damage in the cardiomyocytes”. In the series with cardiomyocytes (normoxia), the cytotoxicity under normoxia result is on record as “produced deleterious effects”. For the same compound, the “inhibition of hypoxia-induced internalization of CX43” value in series [1] is “completely inhibits hypoxia-induced internalization of CX43”.
